Consider 17 compounds from patent US20230086702A1, “SUBSTITUTED 2-AMINO-PYRAZOLYL-[1,2,4]TRIAZOLO[1,5A]PYRIDINE DERIVATIVES AND USE THEREOF” (The Johns Hopkins University, priority 2019, published 2023).

pIC50: −log10 of the molar value.

For one assay, the target named is T1, DLK (Homo sapiens, UniProt Q12852).
T1 construct: 10 nM DLK, catalytic domain, Carna Biosiences; purchased Carna Biosciences ('Carna Biosiences' [sic])
T1 sequence (Q12852 125-366 limits assumed): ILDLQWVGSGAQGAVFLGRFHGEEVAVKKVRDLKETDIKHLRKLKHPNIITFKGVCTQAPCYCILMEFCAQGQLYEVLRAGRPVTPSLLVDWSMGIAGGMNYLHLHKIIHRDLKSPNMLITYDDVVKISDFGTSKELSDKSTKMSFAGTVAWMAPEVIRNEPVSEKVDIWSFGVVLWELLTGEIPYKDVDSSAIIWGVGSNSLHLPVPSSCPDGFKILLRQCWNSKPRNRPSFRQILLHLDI
Description: DLK biochemical assay (TR-FRET, MKK7 phosphorylation). The settings on record: DLK catalytic domain, MKK7 substrate, 60 μM ATP. In a few lines: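 Human DLK activity measured as phosphorylation of His-tagged MKK7 at T275/S277, detected by TR-FRET between Eu-anti-phospho-MKK7 donor (excitation 340 nm) and XL665-anti-His acceptor (665 nm). Signal taken as the XL665/Eu ratio. Detection buffer: 25 mM Tris/HCl pH 7.5, 100 mM EDTA, 100 mM NaCl, 200 mM KF, 0.01% Tween 20.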
On the technique in general: In TR-FRET formats the signal depends on donor and acceptor labels being close together.

The next assay has as its target T2, LZK (Homo sapiens, UniProt O43283).
T2 construct: 10 nM LZK, catalytic domain, Carna Biosiences in assay buffer; purchased Carna Biosciences ('Carna Biosiences' [sic])
T2 sequence (O43283 168-409 limits assumed): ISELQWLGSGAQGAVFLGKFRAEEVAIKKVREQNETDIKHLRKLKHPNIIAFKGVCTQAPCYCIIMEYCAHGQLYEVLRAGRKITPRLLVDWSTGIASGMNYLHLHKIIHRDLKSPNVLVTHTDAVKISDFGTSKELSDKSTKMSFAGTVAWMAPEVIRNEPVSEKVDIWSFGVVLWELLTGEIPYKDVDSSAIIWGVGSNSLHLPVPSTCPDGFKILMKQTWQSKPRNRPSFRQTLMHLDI
The assay can be described thus: LZK biochemical assay (TR-FRET, MKK7 phosphorylation). Particulars: LZK catalytic domain, MKK7 substrate, 15 μM ATP.

In assay [1] the test system is retinal ganglion cells (RGCs). Description: Optic nerve crush, RGC survival (RBPMS staining). The assay is classed as in vivo, C57B6/J animals. Particulars: intravitreal injection of 8 mM, second injection 4 days later, two weeks after optic nerve crush, vs vehicle (FIG. 3). The source says: Inhibition of DLK and LZK can reduce the neuronal injury response and result in the protection of various neuronal populations from degeneration. Cells can be immunostained for p-cJun S73 (p-JUN), which is an indicator of DLK pathway activation. Accordingly, decreased p-JUN staining compared to a control can be indicative of inhibition of DLK pathway activation. RBPMS can be used to mark retinal ganglion cells (RGCs) and show changes in cell survival (e.g., increased RBPMS staining compared to a control can indicate increased cell survival).
Unilateral optic nerve crush was performed on C57B6/J animals between 6 and 8 weeks of age, followed by intravitreal injection of 8 mM of I-106. A second injection was performed 4 days later. Two weeks after optic nerve crush, animals were sacrificed and retinas were immunostained for RBPMS. Confocal microscopy was used to image RGCs and ImageJ was used to quantify the density of RGCs.
Mice were intravitreally injected with 1 μL of vehicle (DMSO), 100 mM I-81, or 300 mM I-81 immediately following optic nerve crush injury. Retinas were extracted 1 month later and immunofluorescently labelled with anti-RBPMS to mark RGCs, anti-phosphorylated JUN (P-JUN) to examine DLK/JNK pathway induction, and Tuj1 to visualize axons (see FIG. 9).

Assay [2] has as its system human stem cell derived RGCs. Description: Protection of human stem cell derived RGCs in models of mitochondrial injury (FIG. 4). The assay is classed as cell-based. As for the experimental part:
(§1) H7 or H9 human embryonic stem cells or patient-derived induced pluripotent stem cells were modified to express mouse Thy1.2 and tdTomato from the BRN3B locus (Sluch et al., 2017). To produce RGCs, stem cells were dissociated to single cells and plated on Matrigel (Corning, USA) coated plates at a density of 52.6 K/cm^2 in mTeSR1 with […] blebbistatin, a time point designated as day minus 1 (d-1). One day after plating, mTeSR1 was completely exchanged for N2B27 media [1:1 mix of DMEM/F12 and Neurobasal with GlutaMAX Supplement, antibiotic-antimycotic, 1% N2 Supplement, and 2% B27 Supplement (all from ThermoFisher Scientific)] to start differentiation; this day was designated as day 0 (d0). Small molecules were added to the cells on day 1 (dl), 24 hours after d0. […] After 35 days in culture, when abundant RGCs have appeared (indicated by red fluorescence), cultures were dissociated into a single cell suspension. […]
In order to test compounds, RGCs were plated in 96- or 384-well Nunclon or Falcon dishes. […] For both sets of RGCs, increasing doses of the kinase inhibitors was added at the time of injury and survival was quantitated after 72 hours using CellTiter-Glo (Promega, Madison) and measuring relative light units (RLU) or by staining cultures with conventional viability dyes (i.e. ethidium homodimer exclusion, calcein AM uptake) and measuring survival by automated image analysis.

The subject of a further assay is hRGCs. Description: hRGC survival under rotenone or CCCP (Cell Titer Glo). The assay is classed as cell-based, human. Particulars: 1 uM rotenone or 30 uM CCCP, increasing doses, 72 hours (FIG. 4). Here is the method: as §1, with “d0. Small molecule addition was done in fresh N2B27 media. Cells were fed with a full exchange of N2B27 media every other day unless a small molecule was to be removed or added on that day of differentiation, requiring daily feeding.” for “d0.”
hRGCs were challenged with (A) 1 uM rotenone or (B) 30 uM CCCP in the presence of increasing doses of I-84 for 72 hours. Cell survival was quantified using Cell Titer Glo, an ATP-based luminescent assay.
(In general: ATP-based viability assays read luminescence as a measure of living cells.)

Regarding `CC[C@H](C)NC(=O)c1cc(-c2cnn([C@H](c3ccc(C(F)(F)F)nc3)C(C)C)c2)cc2nc(N)nn12` (single isomer, unassigned) [Example I-106], the pIC50 (usually −log10 of the IC50, conventionally taken in molar units) is 9.00 against DLK and 8.80 against LZK. The “survival of RGCs (density of RBPMS)” value in assay [1] was “promoted survival of RGCs following optic nerve crush”.

Take `CCC(c1ccc(C(F)(F)F)nc1)n1cc(-c2cc(C(=O)N[C@H]3CCOC3)n3nc(N)nc3c2)cn1` (single isomer, unassigned) [Example I-178]: the pIC50 at DLK was 7.77; on LZK, 7.19.

On to `CCC(c1ccc(C(F)(F)F)nc1)n1cc(-c2cc(C(=O)N[C@H]3CCOC3)n3nc(N)nc3c2)cn1` (single isomer, unassigned) [Example I-179], for which the pIC50 against DLK was 8.74; on LZK, 8.10.

Regarding `CC(C)C(c1ccc(C(F)(F)F)nc1)n1cc(-c2cc(C(=O)N[C@H]3CCOC3)n3nc(N)nc3c2)cn1` (single isomer, unassigned) [Example I-181], the figures for the pIC50 on DLK and on LZK were 8.68 and 7.85, respectively.

Take `CC(C)C(c1ccc(C(F)(F)F)nc1)n1cc(-c2cc(C(=O)N[C@H]3CCOC3)n3nc(N)nc3c2)cn1` (single isomer, unassigned) [Example I-182]: the pIC50 at DLK was 9.52; against LZK, 8.92.

Turning to `Nc1nc2cc(-c3cnn(C(c4ccc(C(F)(F)F)nc4)C4CCOCC4)c3)cc(C(=O)N[C@H]3CCOC3)n2n1` (single isomer, unassigned) [Example I-184], the negative logarithm of the IC50 (pIC50) against DLK is 7.89; against LZK, 7.66.

As for `Nc1nc2cc(-c3cnn(C(c4ccc(C(F)(F)F)nc4)C4CCOCC4)c3)cc(C(=O)N[C@H]3CCOC3)n2n1` (single isomer, unassigned) [Example I-185], the pIC50 at DLK is 9.10; on LZK, 8.64.

Turning to `CCC(c1ccc(OCC(F)(F)F)nc1)n1cc(-c2cc(C(=O)N[C@H]3CCOC3)n3nc(N)nc3c2)cn1` (single isomer, unassigned) [Example I-187], the pIC50 at DLK is 9.10; against LZK it was 7.74.

Take `CCC(c1ccc(OCC(F)(F)F)nc1)n1cc(-c2cc(C(=O)N[C@H]3CCOC3)n3nc(N)nc3c2)cn1` (single isomer, unassigned) [Example I-188]: the pIC50 on DLK was 7.80; against LZK, 6.72.

`CC[C@H](C)NC(=O)c1cc(-c2cnn(CC3CC3)c2)cn2nc(N)nc12` [Example I-1]: the pIC50 on DLK was 7.01; against LZK, 7.08.

Consider `CC[C@H](C)NC(=O)c1cc(-c2cnn(C(CC#N)C(F)(F)F)c2)cc2nc(N)nn12` (stereo partly shown) [Example I-2], for which the figures for the pIC50 on DLK and on LZK were 7.44 and 7.13, respectively.

On to `CC[C@H](C)NC(=O)c1cc(-c2cnn(C3CCC(F)(F)CC3)c2)cn2nc(N)nc12` [Example I-3], for which the pIC50 on DLK was 7.18; against LZK, 7.92.

For the compound `CC[C@H](C)NC(=O)c1cc(-c2cnn(C3CN(C)C3)c2)cn2nc(N)nc12` [Example I-4], the pIC50 is 7.08 against DLK and 7.59 against LZK.

As for `CC[C@H](C)NC(=O)c1cc(-c2cnn(C3CN(Cc4ccccc4)C3)c2)cn2nc(N)nc12` [Example I-5], the pIC50 on DLK is 7.26; against LZK, 7.82.

In the case of `CC[C@H](C)NC(=O)c1cc(-c2cnn([C@H](c3ccc(C(F)(F)F)nc3)C3CCN(C(C)=O)CC3)c2)cn2nc(N)nc12` [Example I-84, 6-(1-{(1-Acetylpiperidin-4-yl)[6-(trifluoromethyl)pyridin-3-yl]methyl}-1H-pyrazol-4-yl)-2-amino-N-[(2S)-butan-2-yl][1,2,4]triazolo[1,5-a]pyridine-8-carboxamide], the pIC50 is 9.30 on DLK and 8.92 against LZK. For the same compound, the “protection of human stem cell derived RGCs” value in assay [2] is recorded as “protective”. The “cell survival of hRGCs” value in the assay with hRGCs was “protective to human stem cell derived RGCs in models of mitochondrial injury”.

For the compound `Nc1nc2c(C(=O)NC3CCC3)cc(-c3cnn(Cc4ccc(F)cc4)c3)cn2n1` [Example I-132, 2-Amino-N-cyclobutyl-6-{1-[(4-fluorophenyl)methyl]-1H-pyrazol-4-yl}[1,2,4]triazolo[1,5-a]pyridine-8-carboxamide], the pIC50 is 7.07 against DLK and 6.62 on LZK.

For the compound “tert-Butyl 4-{(4-{2-amino-8-[(2S)-butan-2-ylcarbamoyl][1,2,4]triazolo[1,5-a]pyridin-6-yl}-1H-pyrazol-1-yl)[6-(trifluoromethyl)pyridin-3-yl]methyl}piperidine-1-carboxylate [Example I-80]”, the pIC50 on DLK was 7.35; on LZK, 7.40.
